Measured values: ChEMBL document CHEMBL3259698, “Reductions in log P improved protein binding and clearance predictions enabling the prospective design of cannabinoid receptor (CB1) antagonists with desired pharmacokinetic properties” (J Med Chem, 2013)
Converted amounts (≈) assume the structure as drawn.

Tests used:
[1] = system: Rattus norvegicus; assay: Reduction in food intake in nonfasted po dosed Sprague-Dawley rat measured for 20 hrs; type: functional; details: read-out: MED
[2] = Clearance in Sprague-Dawley rat at 3 mg/kg, iv; details: in vivo
[3] = Lipophilicity, log P of the compound by HPLC analysis; type: physicochemical
[4] = target: Cannabinoid receptor 1 (Homo sapiens, UniProt P21554); assay: Binding affinity to human CB1 receptor expressed in CHO cells by radioligand displacement based scintillation counting analysis; type: cell-based
Chain of Cannabinoid receptor 1 (P21554 whole entry): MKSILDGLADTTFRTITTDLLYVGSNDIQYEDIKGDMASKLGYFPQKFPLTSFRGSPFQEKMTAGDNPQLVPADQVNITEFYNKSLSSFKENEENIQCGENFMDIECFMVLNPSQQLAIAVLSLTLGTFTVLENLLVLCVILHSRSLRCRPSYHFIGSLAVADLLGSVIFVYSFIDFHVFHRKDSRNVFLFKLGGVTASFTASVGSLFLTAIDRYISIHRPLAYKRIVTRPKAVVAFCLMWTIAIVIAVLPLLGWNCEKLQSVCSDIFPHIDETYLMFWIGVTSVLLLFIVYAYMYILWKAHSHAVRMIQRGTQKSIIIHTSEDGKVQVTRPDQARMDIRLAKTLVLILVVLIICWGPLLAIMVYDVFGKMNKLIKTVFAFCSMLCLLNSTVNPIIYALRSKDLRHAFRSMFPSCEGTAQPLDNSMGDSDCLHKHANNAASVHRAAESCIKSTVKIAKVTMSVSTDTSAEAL

[5] = Terminal half life in Sprague-Dawley rat at 3 mg/kg, iv; type: ADME, organism-based; set-up: dose 3 mg/kg, route intravenous; details: in vivo, read-out: beta t1/2 (converted)
[6] = system: Liver microsome; assay: Clearance in rat liver microsomes at 1 to 3 uM after 20 mins by LC/MS/MS analysis
[7] = Aqueous solubility of the compound; type: physicochemical; details: buffer
[8] = Fraction unbound in rat plasma at 10 uM by equilibrium dialysis method; type: ADME, cell-free
[9] = target: Cytochrome P450 2C9 (Homo sapiens, UniProt P11712); assay: Inhibition of human recombinant CYP2C9; type: ADME
Chain of Cytochrome P450 2C9 (P11712 whole entry): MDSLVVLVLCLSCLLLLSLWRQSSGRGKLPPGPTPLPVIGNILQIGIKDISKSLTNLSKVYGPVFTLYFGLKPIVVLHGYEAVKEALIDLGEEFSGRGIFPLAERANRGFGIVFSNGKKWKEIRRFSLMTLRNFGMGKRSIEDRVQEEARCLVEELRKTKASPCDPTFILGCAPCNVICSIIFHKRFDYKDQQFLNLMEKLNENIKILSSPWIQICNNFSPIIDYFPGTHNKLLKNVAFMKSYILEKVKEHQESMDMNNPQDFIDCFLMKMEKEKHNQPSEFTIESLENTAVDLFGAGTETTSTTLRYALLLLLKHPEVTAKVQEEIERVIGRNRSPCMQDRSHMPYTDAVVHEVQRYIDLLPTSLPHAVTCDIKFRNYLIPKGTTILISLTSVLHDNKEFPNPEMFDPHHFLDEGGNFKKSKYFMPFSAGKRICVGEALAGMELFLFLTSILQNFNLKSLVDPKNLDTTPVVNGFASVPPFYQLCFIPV

[10] = target: Cytochrome P450 2C19 (Homo sapiens, UniProt P33261); assay: Inhibition of human recombinant CYP2C19; type: ADME
Chain of Cytochrome P450 2C19 (P33261 whole entry): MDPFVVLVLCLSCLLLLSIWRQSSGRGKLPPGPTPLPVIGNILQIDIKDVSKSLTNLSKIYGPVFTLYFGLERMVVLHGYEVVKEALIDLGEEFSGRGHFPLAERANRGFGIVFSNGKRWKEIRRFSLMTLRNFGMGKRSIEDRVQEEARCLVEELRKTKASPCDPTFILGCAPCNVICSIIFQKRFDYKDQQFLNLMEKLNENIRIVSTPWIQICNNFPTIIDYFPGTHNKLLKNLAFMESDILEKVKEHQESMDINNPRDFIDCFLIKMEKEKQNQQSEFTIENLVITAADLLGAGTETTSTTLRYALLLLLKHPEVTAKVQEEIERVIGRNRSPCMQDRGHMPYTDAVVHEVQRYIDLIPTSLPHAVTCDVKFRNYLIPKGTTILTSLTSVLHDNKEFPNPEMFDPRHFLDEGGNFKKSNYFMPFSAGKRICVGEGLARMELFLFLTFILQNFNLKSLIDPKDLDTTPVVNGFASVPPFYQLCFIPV

[11] = system: Rattus norvegicus; assay: Reduction in food intake in nonfasted Sprague-Dawley rat at 3 mg/kg, po measured for 8 hrs; type: functional; set-up: scale not given: the % may be the effect or the level left
[12] = system: Rattus norvegicus; assay: Reduction in food intake in nonfasted po dosed Sprague-Dawley rat measured for 8 hrs; type: functional; details: read-out: MED
[13] = target: T1, Cytochrome P450 3A4 (Homo sapiens, UniProt P08684); assay: Inhibition of human recombinant CYP3A4
T1 sequence (P08684 whole entry): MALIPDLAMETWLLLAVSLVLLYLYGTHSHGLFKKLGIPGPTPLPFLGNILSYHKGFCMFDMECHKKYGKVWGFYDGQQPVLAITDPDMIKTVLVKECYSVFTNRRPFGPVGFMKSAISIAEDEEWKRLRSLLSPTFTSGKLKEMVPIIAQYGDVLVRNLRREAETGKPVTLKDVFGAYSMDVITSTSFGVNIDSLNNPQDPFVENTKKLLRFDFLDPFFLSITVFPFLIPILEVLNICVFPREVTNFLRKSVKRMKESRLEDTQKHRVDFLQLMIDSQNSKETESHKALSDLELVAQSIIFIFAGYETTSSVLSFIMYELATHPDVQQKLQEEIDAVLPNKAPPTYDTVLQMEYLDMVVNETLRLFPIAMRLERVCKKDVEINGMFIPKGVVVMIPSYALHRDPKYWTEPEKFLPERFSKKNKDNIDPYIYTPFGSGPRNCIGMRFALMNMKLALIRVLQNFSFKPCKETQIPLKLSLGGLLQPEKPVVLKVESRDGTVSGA

[14] = system: Rattus norvegicus; assay: Reduction in food intake in nonfasted Sprague-Dawley rat at 10 mg/kg, po measured for 8 hrs; type: functional; set-up: scale not given: the % may be the effect or the level left
[15] = Oral bioavailability in dog; type: ADME, organism-based, Canis lupus familiaris; details: in vivo
[16] = system: Rattus norvegicus; assay: Antiobesity activity in rat assessed as reduction in body weight at 10 mg/kg, qd after 4 days; type: functional; set-up: scale not given: the % may be the effect or the level left
[17] = Oral bioavailability in Sprague-Dawley rat; type: ADME, organism-based; details: in vivo
[18] = Elimination half life in iv dosed dog; type: ADME, organism-based, Canis lupus familiaris; details: in vivo, read-out: beta t1/2 (converted)
[19] = AUC (0 to 24 hrs) in rat at 10 mg/kg, qd; type: ADME, organism-based; set-up: time < 24 hr, dose 10 mg/kg; details: plasma
[20] = Cmax in rat at 10 mg/kg, qd; type: ADME, organism-based; set-up: dose 10 mg/kg; details: in vivo
[21] = system: Rattus norvegicus; assay: Antiobesity activity in rat assessed as reduction in food intake at 10 mg/kg; type: functional; set-up: scale not given: the % may be the effect or the level left
[22] = Oral bioavailability in cynomolgus monkey; type: ADME, organism-based, Macaca fascicularis; details: in vivo
[23] = Elimination half life in iv dosed cynomolgus monkey; type: ADME, organism-based, Macaca fascicularis; details: in vivo, read-out: beta t1/2 (converted)
[24] = target: T1, Cytochrome P450 3A4; assay: Inhibition of CYP3A4 in human hepatocytes; type: ADME, cell-based, Hepatocyte
[25] = target: T1, Cytochrome P450 3A4; assay: Inhibition of CYP3A4 in human liver microsomes; type: ADME

| Compound | logP [3] | Ki [4] [nM] | half-life [5] [h] | IC50 [9] [nM] | IC50 [10] [nM] | also measured |
| --- | --- | --- | --- | --- | --- | --- |
| O=c1n(Cc2ccc(C(F)(F)F)nc2)nc2c(-c3ccncc3)c(-c3ccc(Cl)cc3)cnn12 | 3.2 | 12 | 15 | – | – | minimal effective dose [1]: 0.3 mg/kg; clearance [2]: 0.4 mL/min/kg |
| COc1nn2c(=O)n(Cc3ccc(C(F)(F)F)nc3)nc2c(-c2ccncc2)c1-c1ccc(Cl)cc1 | 3.7 | 10 | 17 | – | – | minimal effective dose [1]: 3 mg/kg |
| Cn1c(=O)c(-c2ccc(Cl)cc2)c(-c2ccncc2)c2nn(Cc3ccc(C(F)(F)F)nc3)c(=O)n21 | 3.5 | 18 | 35 | – | – | solubility [7]: 1 µg/mL (≈ 1.95 µM); minimal effective dose [1]: 1 mg/kg |
| Cn1nc2c(-c3ccc(Cl)cc3)c(-c3ccncc3)c(=O)n(Cc3ccc(C(F)(F)F)nc3)n2c1=O | – | 28 | 6 | 1900 | 4300 | solubility [7]: 40 µg/mL (≈ 78 µM); Activity [11]: 21%; minimal effective dose [12]: 3 mg/kg |
| Cc1nc(C(F)(F)F)ccc1Cn1c(=O)c(-c2ccncc2)c(-c2ccc(Cl)cc2)c2nn(C)c(=O)n21 | – | 9 | 3.3 | 2900 | 700 | clearance [2]: 6.3 mL/min/kg; Activity [11]: 33%; minimal effective dose [12]: 3 mg/kg; IC50 [13]: 6800 nM |
| CCn1nc2c(-c3ccc(Cl)cc3)c(-c3ccncc3)c(=O)n(Cc3ccc(C(F)(F)F)nc3C)n2c1=O | 3.9 | 4.5 | 5 | 4200 | 2600 | Activity [14]: 51%; bioavailability [15]: 40%; Activity [16]: 4%; bioavailability [17]: 50%; half-life [18]: 38 h; AUC at 24 h [19]: 48 µM·h; Cmax [20]: 4 µM; Activity [21]: 43%; bioavailability [22]: 15%; half-life [23]: 6 h; IC50 [24]: 3000 nM; minimal effective dose [12]: 10 mg/kg; IC50 [25]: 9100 nM |
| CCn1nc2c(-c3ccc(Cl)cc3)c(-c3ccncc3C)c(=O)n(Cc3ccc(C(F)(F)F)nc3C)n2c1=O | 4.2 | 8.4 | – | 5000 | 32000 | IC50 [13]: > 40000 nM |

Continued, in another order:

| logP [3] | Ki [4] [nM] | Compound | half-life [5] [h] | IC50 [9] [nM] | IC50 [10] [nM] | also measured |
| --- | --- | --- | --- | --- | --- | --- |
| 5.1 | 1.7 | CCCn1nc2c(-c3ccc(Cl)cc3)c(-c3ccc(C#N)cc3)c(=O)n(Cc3ccc(C(F)(F)F)nc3C)n2c1=O | 29 | – | – | clearance [2]: 29 mL/min/kg; CLH [6]: 0.17 nmol/min/mg |
| 3.3 | 210 | Cc1nn2c(=O)n(Cc3ccc(C(F)(F)F)nc3)nc2c(-c2ccncc2)c1-c1ccc(Cl)cc1 | – | – | – | – |
| 2.5 | 4000 | O=c1[nH]n2c(=O)n(Cc3ccc(C(F)(F)F)nc3)nc2c(-c2ccncc2)c1-c1ccc(Cl)cc1 | – | – | – | – |
| – | 4.2 | N#Cc1ccc(Cn2nc3c(-c4ccncc4)c(-c4ccc(Cl)cc4)c(=O)n(Cc4ccc(C#N)cc4)n3c2=O)cc1 | – | – | – | – |
| – | 214 | Cn1nc2c(-c3ccncc3)c(-c3ccc(Cl)cc3)c(=O)n(Cc3ccc(C#N)cc3)n2c1=O | – | – | – | – |
| 3 | 29 | Cn1nc2c(-c3ccc(Cl)cc3)c(-c3ccncc3)c(=O)n(Cc3ccc(C#N)cc3)n2c1=O | 3.5 | – | – | fraction unbound at 10 µM [8]: 0.05 |
| 4 | 15 | CCn1nc2c(-c3ccc(Cl)cc3)c(-c3ccncc3)c(=O)n(Cc3ccc(C(F)(F)F)nc3)n2c1=O | 2.4 | 4900 | 11000 | clearance [2]: 37 mL/min/kg; IC50 [13]: 18000 nM |
